# How the values were obtained:
# [1] = Relaxation parameters T1 and T2 of a 10^−3M solution in a 90 MHz NMR experiment; type: physicochemical; conditions: 10-^−3M solution
# Protocol: (§1) The complex, dihydrogen bis(N-[N′-(2,6-diisopropylphenyl)carbamoylmethyl]iminodiaceto)manganese(II) hydrate, was thus isolated as the hydrated species. The solubility of the complex in water was determined to be approximately 0.1% w/v. The relaxation parameters T1 and T2 of a 10-^−3M solution of the complex in a 90 MHz NMR experiment were determined to be 0.107 sec. and 0.007 sec. respectively. The T1 and T2 values for water are 2.51 sec. and 0.150 sec., respectively.
# (§2) The relaxation parameters T1 and T2 of a 10^−3M solution of the complex in a 90 MHz NMR experiment were determined to be 126 milliseconds and 1.5 milliseconds, respectively.
# [2] = Solubility of the complex in water; type: physicochemical
# Protocol: as §1, §2
# [3] = Toxicity profile of the gadolinium complex; conditions: in vivo
# liver = assay: T1 and T2 lowering effects of the gadolinium complex in the liver; conditions: in vivo
Compound,relaxation parameter T1 [1],relaxation parameter T2 [1],solubility of the complex in water [2],LD50 [3],toxicity profile [3],T1 and T2 lowering effects in the liver (liver)
CC(C)c1cccc(C(C)C)c1NC(=O)CN(CC(=O)[O-])CC(=O)O.CC(C)c1cccc(C(C)C)c1NC(=O)CN(CC(=O)[O-])CC(=O)O.O.[Mn+2] [Example 1],0.107 s,0.007 s,approximately 0.1 % w/v,–,–,–
"Cc1cccc(C)c1NC(=O)CN(CC(=O)[O-])CC(=O)O.Cc1cccc(C)c1NC(=O)CN(CC(=O)[O-])CC(=O)[O-].O.O.[Gd+3] [hydrogen bis(N-[N′-(2,6-dimethylphenyl)carbamoylmethyl]iminodiaceto)gadolinium(III) dihydrate]",–,–,–,about 0.2 mmol/kg,"persistent, delayed toxicity",relatively poor T1 and T2 lowering effects in the liver

# Reference: patent US6797255B1, “Methods and compositions for enhancing magnetic resonance imaging” (Mallinckrodt Inc., priority 1985, dated 2004)
